From patent publication US20240270801A1, “EPITOPE PEPTIDE OF HUMAN ALPHA-SYNUCLEIN AND PHARMACEUTICAL COMPOSITION INCLUDING SAID PEPTIDE” (Sumitomo Pharma Co., Ltd., priority 2021, published 2024)
Non-standard residues stand in square brackets, D forms with d. No end group written: not given here. Ahx = NCCCCCC(=O)O

How the values were obtained:
[1] = test system: human αSyn; test: Antibody-inducing ability in mice: ELISA antibody titer of immune serum with respect to human αSyn; type: in vivo, mouse; design: key to Antibody titer with respect to human αSyn, relative to control: log titer relative to control conjugate (control = 1); conditions: for Antibody titer with respect to human αSyn, relative to control: mice
Protocol: (§1) Using the various AJ peptide-human αSyn peptide conjugates produced in Example 1, an antibody-inducing ability with respect to human αSyn in mice was evaluated. The various AJ-human αSyn peptide conjugates (250 μg/mouse) or KLH-DMPVDPDN (25 μg/mouse) in physiological saline were intramuscularly administered to balb/c mice (females, 6 weeks old, CLEA Japan, Inc.) twice at a 2-week interval for immunization using aluminum hydroxide (Alum) (InvivoGen, 50 μg/mouse) as an adjuvant. As a negative control, physiological saline (100 μL/mouse) comprising the same amount of aluminum hydroxide was administered twice. Two weeks after the second administration, serum was recovered to evaluate the antibody titer with respect to human αSyn by ELISA.
ELISA was performed by the following method. 96-well plates were coated with human αSyn (Sigma) at 0.2 μg/well. After washing with PBST (Phosphate Buffered Saline comprising 0.05% Tween) once, blocking was performed with 3% skim milk (FUJIFILM Wako Pure Chemical Corporation). After washing with PBST three times, diluted serum was added to cause a reaction at room temperature for 1 hour. Furthermore, after washing with PBST three times, Goat anti-mouse IgG-HRP (abcam) was added to cause a reaction at room temperature for 1 hour. After washing with PBST three times, SureBlue TMB Microwell Peroxidase Substrate (KPL) was added to cause a reaction at room temperature for 10 minutes while light shielding. An equal volume of a TMB Stop Solution (KPL) was added to stop the reaction, and the absorbance at 450 nm was measured. ELISA with respect to aggregated human αSyn was performed by coating with the aggregated human αSyn (Stress Marq) at 15 ng/well instead of human αSyn in the above-mentioned method. […]
The antibody-inducing ability of the produced various human αSyn peptide conjugates with respect to human αSyn and aggregated human αSyn in the mice was evaluated by the method described in Example 2 using the antibody titers with respect to human αSyn and aggregated human αSyn of the mouse immune serum. […] In Table 6, the antibody titer of AJ-p242, AJ-p244, AJ-p347, or AJ-p361 is shown with the antibody titer of AJ-p150 as a control being 1 (logarithm). In addition, the antibody titers of AJ-p229, AJ-p237, and AJ-p298 are shown with the antibody titer of AJ-p54 as a control being 1 (logarithm). […]

[2] = test system: aggregated human αSyn; test: Antibody-inducing ability in mice: ELISA antibody titer of immune serum with respect to aggregated human αSyn; type: in vivo, mouse; conditions: mice
Protocol: as §1
ELISA was performed by the following method. 96-well plates were coated with human αSyn (Sigma) at 0.2 μg/well. After washing with PBST (Phosphate Buffered Saline comprising 0.05% Tween) once, blocking was performed with 3% skim milk (FUJIFILM Wako Pure Chemical Corporation). After washing with PBST three times, diluted serum was added to cause a reaction at room temperature for 1 hour. Furthermore, after washing with PBST three times, Goat anti-mouse IgG-HRP (abcam) was added to cause a reaction at room temperature for 1 hour. After washing with PBST three times, SureBlue TMB Microwell Peroxidase Substrate (KPL) was added to cause a reaction at room temperature for 10 minutes while light shielding. An equal volume of a TMB Stop Solution (KPL) was added to stop the reaction, and the absorbance at 450 nm was measured. ELISA with respect to aggregated human αSyn was performed by coating with the aggregated human αSyn (Stress Marq) at 15 ng/well instead of human αSyn in the above-mentioned method.
The antibody-inducing ability of the AJ-human αSyn peptide conjugates (AJ-p54, AJ-p54-KLH, and AJ-DMPVDPDN) produced in Example 1 with respect to human αSyn and aggregated human αSyn in mice was evaluated. Physiological saline or the AJ-human αSyn peptide conjugate (250 μg/mouse) was intramuscularly administered to balb/c mice (females, 6 weeks old, CLEA Japan, Inc.) twice at a 2-week interval using Alum (InvivoGen, 50 μg/mouse) as an adjuvant. Furthermore, KLH-DMPVDPDN (25 μg/mouse) was administered using Alum (InvivoGen, 50 μg/mouse) as an adjuvant. Two weeks after the second administration, serum was recovered to evaluate the antibody titer by ELISA. ELISA was performed by the method described in Example 2.
The antibody-inducing ability of the produced various human αSyn peptide conjugates with respect to human αSyn and aggregated human αSyn in the mice was evaluated by the method described in Example 2 using the antibody titers with respect to human αSyn and aggregated human αSyn of the mouse immune serum. […] In Table 6, the antibody titer of AJ-p242, AJ-p244, AJ-p347, or AJ-p361 is shown with the antibody titer of AJ-p150 as a control being 1 (logarithm). In addition, the antibody titers of AJ-p229, AJ-p237, and AJ-p298 are shown with the antibody titer of AJ-p54 as a control being 1 (logarithm).
The antibody-inducing ability of the AJ-human αSyn peptide conjugates with a modified linker with respect to human αSyn and aggregated human αSyn in the mice was evaluated using the antibody titers with respect to human αSyn and aggregated human αSyn of the mouse immune serum. […] In Table 8, the antibody titers of the AJ-human αSyn peptide conjugates with various modified linkers comprising p54 are shown with the antibody titer of AJ-p54 as a control being 1 (logarithm). In addition, the antibody titers of the AJ-human αSyn peptide conjugates with various modified linkers comprising p150 are shown with the antibody titer of AJ-p150 as a control being 1 (logarithm).

[3] = Example 10, modified linker, titer of AJ-p54 or AJ-p150 as control being 1 (logarithm)
[4] = Example 9, N = 4, titer of AJ-p150 or AJ-p54 as control being 1 (logarithm)

Row | Sequence | Antibody titer with respect to human αSyn, relative to control [1, 3] | Antibody titer with respect to aggregated human αSyn, relative to control [2, 3] | Antibody titer compared with control conjugate (in words) ([1]; Example 9, mice, human αSyn and aggregated human αSyn, control AJ-p150 or AJ-p54) | Antibody titer with respect to human αSyn, relative to control [1, 4] | Antibody titer with respect to aggregated human αSyn, relative to control [2, 4]
1 | ELKLIFLHRLKRLRKRLKRKDDAKKEAYEMPSEE [AJ-DDAKK-p150] | 1.14 | 1.30 |  |  | 
2 | ELKLIFLHRLKRLRKRLKRKDDAKKKKDQLGKNE [AJ-DDAKK-p54] | 1.03 | 0.98 |  |  | 
3 | ELKLIFLHRLKRLRKRLKRKEAAAKEAYEMPSEE [AJ-EAAAK-p150] | 1.14 | 1.16 |  |  | 
4 | ELKLIFLHRLKRLRKRLKRKEAAAKKKDQLGKNE [AJ-EAAAK-p54] | 0.96 | 0.96 |  |  | 
5 | ELKLIFLHRLKRLRKRLKRKGEAYEMPSEE [AJ-G-p150] | 0.96 | 0.95 |  |  | 
6 | ELKLIFLHRLKRLRKRLKRKGGGGSEAYEMPSEE [AJ-GGGGS-p150] | 1.19 | 1.25 |  |  | 
7 | ELKLIFLHRLKRLRKRLKRKGGGGSKKDQLGKNE [AJ-GGGGS-p54] | 1.05 | 1.02 |  |  | 
8 | ELKLIFLHRLKRLRKRLKRKGKKDQLGKNE [AJ-G-p54] | 0.89 | 0.96 |  |  | 
9 | ELKLIFLHRLKRLRKRLKRKPPDPDPEAYEMPSEE [AJ-PPDPDP-p150] | 1.33 | 1.37 |  |  | 
10 | ELKLIFLHRLKRLRKRLKRKPPDPDPKKDQLGKNE [AJ-PPDPDP-p54] | 0.89 | 0.88 |  |  | 
11 | ELKLIFLHRLKRLRKRLKRKXAAYEMPSEEG (ELKLIFLHRLKRLRKRLKRK[Ahx]AAYEMPSEEG) [AJ-p242] |  |  | same level of an antibody titer | 1.06 | 1.12
